Earlier results, collected in US8143269B2, “Inhibitors of store operated calcium release” (Calcimedica, Inc., priority 2008, dated 2012).

Assays:
[1] = molecular target: STIM1 and Orai1 in human embryonic kidney 293 cells (HEK293 cells) (Homo sapiens, UniProt Q96D31); details: HEK293 cells coexpressing STIM1 and Orai1
STIM1 and Orai1 in human embryonic kidney 293 cells (HEK293 cells), sequence (Q96D31 whole entry): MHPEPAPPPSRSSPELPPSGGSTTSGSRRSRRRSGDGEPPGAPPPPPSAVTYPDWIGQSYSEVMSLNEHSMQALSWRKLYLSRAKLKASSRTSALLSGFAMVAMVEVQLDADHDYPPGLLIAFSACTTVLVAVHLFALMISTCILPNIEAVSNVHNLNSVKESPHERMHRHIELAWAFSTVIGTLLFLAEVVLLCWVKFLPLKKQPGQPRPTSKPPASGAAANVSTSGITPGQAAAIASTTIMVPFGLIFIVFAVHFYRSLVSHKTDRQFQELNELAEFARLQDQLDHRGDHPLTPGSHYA

block of store-dependent Ca2+ entry [1] | SMILES | inhibition of SOCE (Jurkat cells) | inhibition of proliferation (Jurkat cells) | inhibition of SOCE (colon cancer cells) | inhibition of proliferation (colon cancer cells)
 | Cc1nnsc1C(=O)Nc1ccc(-n2nc(C(F)(F)F)cc2C(F)(F)F)cc1 [BTP-2] | inhibits | inhibits | inhibits | inhibits
completely blocked | NCCOB(c1ccccc1)c1ccccc1 [2-aminoethoxydiphenylborate] |  |  |  | 
